6 molecules from patent US12024515B2, “Kifunensine derivatives” (University of Kansas, priority 2021, dated 2024) can be followed below.

Numbered stars: 1 amine (or outer) side, 2 acyl side, 3 side chain; on linkers, the order of the positions; unused ones are H or OH. Bridge positions count the residues as written; N and C are the ends. Square brackets hold non-standard residues; d marks the D form. Peptide text beside a SMILES is read from it. I, II: the chains in the order shown. Actinocin(9to1) = Cc1c2oc3c(C)ccc(C(=O)[*:1])c3nc-2c(C(=O)[*:2])c(N)c1=O; NMeV = CN[C@H](C(=O)O)C(C)C; Sar = CNCC(=O)O

Series [1] deals with Raji cells. In words: CD20 expression in Raji cells (flow cytometry of surface CD20, western blotting). The note with it: for cell surface expression of CD20: 48 hours, flow cytometry, Kif 25 μM, Swain 25 μM, DMJ 1 mM, DIM 1 mM (FIG. 1A, 1C); for effect on Kif mediated CD20 upregulation: with Kif 25 μM, actinomycin D 10 μg/ml, cycloheximide 100 μg/ml, 48 hours (FIG. 2A). Type of series: cell-based. How it is done: (§1) FIGS. 1A-1E relate to kifunensine (“Kif”) induced expression of CD20. Raji cells were incubated with Kif for 48 hours and CD20 levels on the cell surface levels were analyzed by flow cytometry (FIG. 1A) and in whole cell lysate by western blotting (FIG. 1B). Raji cells were preincubated with Kif (25 μM), Swain (25 μM), DMJ (1 mM), and DIM (1 mM) or vehicle for 48 hours, and the cell surface levels of CD20 were analyzed by flow cytometry (FIG. 1C). Cells were incubated with Kif (25 μM) or vehicle for 48 hours and the cell surface levels of CD20 were analyzed by flow cytometry (FIG. 1D). Raji and rituximab resistant cells were incubated with Kif (25 μM) or vehicle for 48 hours and the cell surface levels of CD20 were analyzed by flow cytometry (FIG. 1E). Results are presented as a percentage of MFI of vehicle treated control cells (±SD). Statistical significance was determined with Kruskal-Wallis test, *P<0.033, **P<0.002, ****P<0.001, vs control.
Staining of surface antigens. Cells were treated for 48 hours with the described inhibitors at the indicated concentrations or with DMSO controls. Cells were then harvested, washed twice with cold flow buffer (PBS (GIBCO) containing 0.5% BSA and 0.1% sodium azide (Fisher)), stained for 1 hour with 0.25 μg of anti-CD20 mAb (clone 2H7) conjugated with Super Bright 645 (eBioscience, ThermoFisher Scientific), then washed twice with flow buffer, and finally the cells were incubated with flow buffer containing 2.5 μg/mL 7-aminoactinomycin (7-AAD, eBioscience, ThermoFisher Scientific) for 10 minutes prior to being analyzed using an Attune NxT Flow Cytometer. CD20 expression was assessed in 7-AAD negative cells.
In general terms: A flow cytometer gives signals particle by particle.

Series [2] has as its system rituximab resistant cell lines (Raji 2R, Raji 4RH, RL 4RH). Put plainly: Cell surface CD20 in rituximab resistant cell lines (flow cytometry). Type of series: cell-based. To be noted: 25 μM, 48 hours (FIG. 1E). How it is done:
as §1
(§2) Staining of surface antigens. Cells were treated for 48 hours with the described inhibitors at the indicated concentrations or with DMSO controls. […] CD20 expression was assessed in 7-AAD negative cells.

The subject of a further series is MS4A1. In words: CD20 mRNA (MS4A1) expression by RT-PCR. Type of series: cell-based. The note with it: Raji cells, Kif 25 μM, 48 hours, RT-PCR (FIG. 2B). How it is done: FIGS. 2A-2B illustrates that Kif mediates CD20 upregulation occurs upstream of transcription and translation. Cells were incubated with Kif (25 μM), Kif (25 μM) plus actinomycin D (10 μg/ml), Kif (25 μM) plus cycloheximide (100 μg/ml), or vehicle control (Con) for 48 hours and the cell surface levels of CD20 were analyzed by flow cytometry (FIG. 2A). Cells were incubated with Kif (25 μM) or vehicle control (Con) for 48 hours and CD20 mRNA levels were analyzed by RT-PCR (FIG. 2B).

Series [3] deals with Raji cells and Rituximab resistant Raji 4RH cells. Put plainly: In vivo CD20 expression in subcutaneous Raji and Raji 4RH tumors (Western blot). To be noted: SCID mice, i.p., 10 mg/kg every second day over 8 days. On the procedure:
In vivo increase in CD20 expression of Raji cells and Rituximab resistant Raji 4RH cells. A study was performed to determine whether Kif can increase the expression of CD20 on Raji cells and Rituximab resistant Raji 4RH cells that had been subcutaneously inoculated into the flank of six week old SCID mice. After inoculation, tumors were permitted to grow for 10 days prior to treatment initiation. The mice were randomly divided into control and treatment groups. Control group received PBS, while the treatment group received Kif (i.p., 10 mg/kg) every second day over an 8 day period. The mice were then scarified, tumors were harvested, and CD20 expression was assessed by Western blot.

Series [4] relates to panel of cells lines representing diffuse large B cell lymphoma, Burkitt lymphoma, and follicular lymphoma. Put plainly: Cell surface CD20 in a panel of B cell lymphoma cell lines (flow cytometry). To be noted: 25 μM, 48 hours, flow cytometry (FIG. 1D). Format: cell-based. How it is done: as §1, §2
The test system of series [5] is malignant B cell lines. In words: CDC assay with anti-CD20 antibody and pooled human serum. Type of series: cell-based. On the procedure: FIGS. 3A-3B illustrate Kif potentiates the activity of anti-CD20 antibodies in vitro. Cells were incubated with Kif (25 μM) or vehicle control (Con) for 48 hours prior to rituximab mediated ADCC (FIG. 3A) or CDC (FIG. 3B). CDC assays. 25 μL of the target cell suspension at 2 million cells/mL (i.e., 50,000 target cells) were added to a 96-well plate. 25 μL of antibody solutions at 4× the indicated concentrations in complete media or complete media were added to experiment wells and the control wells respectively, and the resulting suspensions were incubated for 30 minutes at 37° C. Subsequently, 50 μL of a 20% of pooled human serum in complete media were added to experiment wells and control wells (i.e., no antibody) and the plate was incubated for 1 hours at 37° C. in a fully humidified atmosphere of 5% CO2. Subsequently, 6 uL of 2.5 μg/mL was added to each well and after 10 minutes the plate was analyzed using an Attune NxT Flow Cytometer. Target cell viability was accessed by determining the percentage of 7-AAD positive cells. CDC was calculated as follows: % CDC=% 7-AAD positive target cells in experiment well—% 7-AAD positive target cells in control wells.

Series [6] has as its system Raji cells. In words: Histone acetylation in Raji cells. Format: cell-based.
In series [7] the test system is patient derived primary CLL samples. Put plainly: CD20 expression in patient derived primary CLL samples. Format: cell-based.
Series [8] deals with malignant B cell lines. Put plainly: ADCC assay with anti-CD20 antibody and CD16+ NK-92 effector cells. Type of series: cell-based. How it is done: FIGS. 3A-3B illustrate Kif potentiates the activity of anti-CD20 antibodies in vitro. Cells were incubated with Kif (25 μM) or vehicle control (Con) for 48 hours prior to rituximab mediated ADCC (FIG. 3A) or CDC (FIG. 3B). ADCC assays. Target cells were labelled with CellTrace Violet according to the manufacturer's instructions (ThermoFisher Scientific). In brief, 1 million target cells were washed twice with warm PBS, then stained with 5 μM CellTrace Violet in PBS for 20 minutes at 37° C. Then, 5 volume equivalents of complete media were added and the resulting solution was incubated for 10 minutes at 37° C. The cells were pelleted and washed twice with fresh complete media, and the cell suspension was adjusted to 800,000 cells/mL in complete media. 25 μL of the target cell suspension (i.e., 20,000 target cells) were then in added to a 96-well plate. 25 μL of rituximab solutions at 4× the indicated concentrations in complete media or complete media were added to experiment wells and the control wells respectively, and the resulting suspensions were incubated for 30 minutes at 37° C. Subsequently, 50 μL of a 1.6 million CD-16+ NK-92 cells/mL suspension in complete media (E:T 4:1, i.e., 80,000 effector cells) were added to experiment wells and control wells (i.e., no antibody) and the plate was incubated for 4 hours at 37° C. in a fully humidified atmosphere of 5% CO2. Subsequently, 6 uL of 2.5 μg/mL was added to each well and after 10 minutes the plate was analyzed using an Attune NxT Flow Cytometer. Target cell viability was accessed by determining the percentage of CellTrace Violet and 7-AAD positive cells. ADCC was calculated as follows: % ADCC=% 7-AAD positive target cells in experiment well—% 7-AAD positive target cells in control wells.

On to `OC[C@H]1NC[C@@H](O)[C@@H](O)[C@@H]1O` [DMJ, 1-deoxymannojirimycin hydrochlorie], for which the “cell surface expression of CD20” value with Raji cells [1] (Raji cells) is recorded as “significantly increase CD20 expression”.
For the molecule `O=C1N[C@@H]2[C@@H](O)[C@@H](O)[C@H](O)[C@@H](CO)N2C1=O` [Kif, kifunensine], the “CD20 expression in rituximab resistant cell lines” value in [2] was “significantly increased CD20 expression”. Also, the “cell surface expression of CD20” value with Raji cells [1] (Raji cells) is “increases cell surface expression of CD20 in Raji cells in a concentration dependent manner”. In addition, in the series on Raji cells [1] (Raji cells, whole cell lysate, 48 hours (FIG. 1B)), the “CD20 expression by western blotting” value is “increase CD20 expression was confirmed by western blotting”. For the same molecule, the “expression of MS4A1” value in the series with MS4A1 is “altered the expression of the MS4A1”. Besides, the side effects entry in [3] is “no side effects were observed”. In [3] (Western blot, Raji and Raji 4RH), the “CD20 expression in tumors” value is reported as “increases the expression of CD20”. Besides, the “CD20 upregulation in panel of cell lines” value in series [4] is listed as “upregulates CD20”. The “complement mediated killing without antibody” value with malignant B cell lines [5] (Kif treated cells, absence of antibody) is “more susceptible to complement mediated killing in the absence of antibody”. The “susceptibility to CDC with rituximab and ofatumumab” value in the series with malignant B cell lines [5] (cells treated with Kif prior to CDC (FIG. 3B)) is on record as “rendered cells more susceptible”. Moreover, the “sensitization of rituximab resistant cells to CDC” value with malignant B cell lines [5] (rituximab resistant cells, data not shown) is on record as “not sensitized to CDC”. For the same molecule, the histone acetylation result in the series with Raji cells [6] was “did not significantly alter histone acetylation”. Also, in [7], the “CD20 expression in primary CLL samples” value was “increases CD20 expression in a dose-dependent and significant manner”. Further, the “obinutuzumab potency in combination with Kif” value with malignant B cell lines [8] (ADCC) is given as “potency of obinutuzumab was also increased”. Also, the “sensitization of rituximab resistant cell lines to rituximab (ADCC)” value with malignant B cell lines [8] (Raji 2R and Raji 4RH) is listed as “sensitized to the action of rituximab”. The “rituximab potency in ADCC in combination with Kif” value with malignant B cell lines [8] (all cell lines tested, Kif 25 μM 48 hours before rituximab mediated ADCC (FIG. 3A)) was “potency of rituximab was increased”.
`C[C@@H]1C[C@@H]([C@H](O)CC2CC(=O)NC(=O)C2)C(=O)[C@@H](C)C1` [CHX, cycloheximide]: in the series on Raji cells [1], the “effect on Kif mediated CD20 upregulation” value is listed as “inhibit Kif mediated CD20 upregulation”.
`O[C@H]1[C@H]2[C@H](O)CCCN2C[C@H]1O` [Swain, swainsonine]: in the series with Raji cells [1] (Raji cells), the “cell surface expression of CD20” value was “significantly increase CD20 expression”.
Turning to `OC[C@@H](O)[C@H]1NC[C@@H](O)[C@H]1O` [DIM, 1,4-dideoxy-1,4-imino-D-mannitol], in the series on Raji cells [1] (Raji cells), the “cell surface expression of CD20” value is given as “significantly increase CD20 expression”.
For `Cc1c2oc3c(C)ccc(C(=O)N[C@@H]4C(=O)N[C@H](C(C)C)C(=O)N5CCC[C@H]5C(=O)N(C)CC(=O)N(C)[C@@H](C(C)C)C(=O)O[C@@H]4C)c3nc-2c(C(=O)N[C@@H]2C(=O)N[C@H](C(C)C)C(=O)N3CCC[C@H]3C(=O)N(C)CC(=O)N(C)[C@@H](C(C)C)C(=O)O[C@@H]2C)c(N)c1=O` [ACT-D, actinomycin D] (I: T[dV]P[Sar][NMeV] / II: T[dV]P[Sar][NMeV]; ester I:1-I:C, II:1-II:C; linker I:N-II:N via Actinocin(9to1)), the “effect on Kif mediated CD20 upregulation” value with Raji cells [1] was “inhibit Kif mediated CD20 upregulation”.
